Measurements from US8716355B2, “Hydroxylated tolans and related compounds in the treatment of a cancer” (Kent State University, priority 2007, dated 2014).

Legend:
prostate cancer = experiment: Prostate cancer patients (Example VIII A); format: in vivo, human; details: daily 10 μg to 5 mg/Kg; no significant differences between the four groups
Experimental: A group of 40 men aged 55-75 suffering from prostate cancer receive a daily dosage of between 10 μg and 5 mg/Kg body weight of KST-201, KST-213, KST-301 or KST-401 (10 patients per compound). Examination of the patients by clinical, radiographic and histopathological tests show significant shrinkage in tumors, and signs of cell death in 38% of the patients; there are no significant differences between the four treatment groups.

Vero cells = experiment: Cytotoxicity (CD50) on Vero cells; format: cell-based; details: 48 hours of exposure
Excerpt: See Example II for tumor cell cytotoxicity of these compounds. […] NAB group 32 contains two compounds, Tolan-2 (also designated herein as KST-201) and Stil-2. Based on the NAB, they were classified as topological isomers. However, chemically they differ because Stil-2, a […], contained a double bonded linker, while Tolan-2 contained a triple bonded linker. The cytotoxicity of the two molecules on Vero cells differed markedly: Tolan-2 was less toxic than Stil-2.

bladder cancer = experiment: Bladder cancer patients (Example VIII B); format: in vivo, human; details: intravenous 10 μg to 5 mg/kg over three months; for Patients with significant remission: no differences between compounds
Experimental: A group of 20 men and 20 women aged 50-75 with bladder cancer are treated by intravenous injection of between 10 μg and 5 mg/kg of KST-201, KST-213, KST-301 or KST-401. Each compound is given to a group of 5 men and 5 women) over a period of three months. Clinical, radiographic and histopathological tests show significant remission in 35% of patients, accompanied by signs of cell death in 45%. There are no significant differences between the results with the four compounds.

ovarian cancer = experiment: Ovarian cancer patients (Example VIII D); format: in vivo, human; details: daily gelatin capsule 200 mg
Experimental: A study is carried out in a group of 40 women with ovarian cancer of various grades to determine the effect of treatment with compounds of KST-201, KST-213, KST-301 and KST-401. The administration protocol involves daily administration of a gelatin capsule containing 200 mg of active compound.

colon cancer = experiment: Colon cancer patients (Example VIII E); format: in vivo, human; details: for Dissemination of the tumors: daily bolus injections (intravenous or intramuscular) of 2 g; for Cancer marker carcinoembryonic antigen (CEA) / Progression of the tumor: intravenous infusion 2 g daily for three weeks
Experimental: Eight patients suffering from advanced colon cancer are treated daily for three weeks with an intravenous infusion of 2 g of the compounds KST-201, KST-213, KST-301 or KST-401 dissolved in saline. Two patients are assigned to each compound. The compounds are dissolved in sterile saline. […] Progression of the tumor is also arrested over the treatment period.
Another eight patients with terminal colon cancer are treated by daily bolus injections (intravenous or intramuscular) of 2 g of KST-201, KST-213, KST-301 or KST-401.

breast cancer = experiment: Breast cancer prevention, skin patch (Example VIII C); format: in vivo, human; details: transdermal patch 10 mg to 100 mg daily, one-year study
Experimental: This study investigates whether KST-201, KST-213, KST-301 and KST-401 administered transdermally each day through a skin patch aid in preventing breast cancer or metastatic cancer following cancer therapy. Patches are prepared with a lipophilic carrier which is readily absorbed through the skin (glycerol cold cream containing glycerin and peanut oil). The HT compound is mixed with the lipophilic cream such that each patch comprises 10 mg to 100 mg of active compound. The patch is applied to the skin each day, and rapid absorption occurs. After two hours, the patch is removed.

HSV-1 = HSV-1 replication in infected Vero cells (plaque assay); format: cell-based, Herpes Simplex Virus-Type 1; details: at CD50, 75% and 50% of CD50; 24, 48, 72 h
Experimental: For this purpose HSV-1 replication at 24, 48 and 72 h was examined in the presence or absence of varying concentrations of the polyphenol.
The SI is the ratio of the CD50 divided by a selected inhibitory concentration (IC %).
Viral inhibition by Tolan-3 appeared to occur after viral entry into cells. […] Subsequently, the compound was removed and replaced with culture medium alone, and the incubated continued for 48 or 72 more hrs. In a second experiment, HSV-1 infected Vero cells were incubated with 350 μM Tolan-3 for 48 h. Thereafter, the Tolan-3 was removed and replaced by medium and the incubation continued for an additional 24 h. Viral titers were calculated by a standard plaque assay.

Mushroom tyrosinase = experiment: Inhibition of mushroom tyrosinase activity; format: biochemical; details: concentration not given
Experimental: All chemical used for reagents were purchased from Sigma Chemical Company. KST201 at each tested concentration (1000, 250 and 100 μM) was dissolved in 10% ethanol from a master mixture of the drug prepared at 0.1M in 100% ethanol.
Mushroom tyrosinase (Sigma) was diluted in 50 mM phosphate buffer, pH 6.5 to yield a concentration of 16 U/μl. […] A master mix containing 0.5 mM L-DOPA [3,4-dihydroxy-1-phenylalanine], 10 mM Sodium L-tyrosine in 50 mM phosphate buffer, pH 6.5 was prepared. The KST-201 dilutions were preincubated with the enzyme for 20 minutes. The samples were pipetted into 24 well plates and the master mixture added quickly. The reaction was read using a kinetic format in which wells were read every 30 seconds over a course of 10 minutes at a wavelength of 475 nm using a Synergy HT Plate reader. A kinetic curve was generated for each sample compared to a total reaction with mushroom tyrosinase without a drug (total).

rat-organ homogenates [1] = details: cited from earlier work
rat-organ homogenates [2] = details: cited from earlier work; remark: listed apart in the source
rat erythrocyte (RBC) = details: cited from earlier work

Structure (SMILES) | CD50 (Vero cells) [µM] | Log CD50 (Vero cells) | Inhibition (%) of autooxidation MDA level at 7.5 μM, In rat brain (rat-organ homogenates [1]) [%] | Inhibition (%) of autooxidation MDA level at 7.5 μM, In rat kidney (rat-organ homogenates [1]) [%] | Inhibition (%) of autooxidation MDA level at 7.5 μM, In rat liver (rat-organ homogenates [1]) [%] | Inhibition (%) of Fe2+ − VitC induced level of MDA at 15 μM, In rat brain (rat-organ homogenates [2]) [%] | Inhibition (%) of Fe2+ − VitC induced level of MDA at 15 μM, In rat kidney (rat-organ homogenates [2]) [%] | Inhibition (%) of Fe2+ − VitC induced level of MDA at 15 μM, In rat liver (rat-organ homogenates [2]) [%] | Inhibition (%) of RBC hemolysis induced by H2O2 at 4 μM (rat erythrocyte (RBC)) [%] | also measured
Oc1ccc(C#Cc2ccc(C(F)(F)F)cc2)cc1 [KST-213, 4-hydroxy-4′-trifluoromethyltolan] | 48.2 | 1.68 | – | – | – | – | – | – | – | Patients with significant shrinkage in tumors, and signs of cell death (prostate cancer): 38%; Patients with signs of cell death (bladder cancer): 45%; Patients with significant remission (bladder cancer): 35%; Rate of production of ovarian cancer markers (Muc-1, Sp17) (ovarian cancer): significant decrease; Tumor growth during study period (ovarian cancer): Tumors regress or show no further growth; Dissemination of the tumors (colon cancer): dissemination of the tumors is diminished; Cancer marker carcinoembryonic antigen (CEA) (colon cancer): significant reduction; Progression of the tumor (colon cancer): arrested; Breast cancer or metastatic cancer in high-risk group (breast cancer): does not show any evidence of breast cancer or other metastatic cancer; Effect on HSV-1 viral replication in Vero cells (in words) (HSV-1): substantially inhibited
Oc1cc(O)cc(C#Cc2cc(O)cc(O)c2)c1 [KST-401, 3,3′,5,5′-tetrahydroxytolan] | 103 | 2.01 | – | – | – | – | – | – | – | Patients with significant shrinkage in tumors, and signs of cell death (prostate cancer): 38%; % inhibition of mushroom tyrosinase activity (Mushroom tyrosinase): 22.7±6.5%; Patients with signs of cell death (bladder cancer): 45%; Patients with significant remission (bladder cancer): 35%; Rate of production of ovarian cancer markers (Muc-1, Sp17) (ovarian cancer): significant decrease; Tumor growth during study period (ovarian cancer): Tumors regress or show no further growth; Dissemination of the tumors (colon cancer): dissemination of the tumors is diminished; Cancer marker carcinoembryonic antigen (CEA) (colon cancer): significant reduction; Progression of the tumor (colon cancer): arrested; Breast cancer or metastatic cancer in high-risk group (breast cancer): does not show any evidence of breast cancer or other metastatic cancer; Effect on HSV-1 viral replication in Vero cells (in words) (HSV-1): substantial viral inhibition
Oc1ccc(/C=C/c2ccccc2)cc1 [Stil-1] | 131 | 2.12 | – | – | – | – | – | – | – | –
Oc1ccc(/C=C/c2ccc(O)cc2)cc1 [Stil-2] | 53.3 | 1.73 | – | – | – | – | – | – | – | Effect on HSV-1 viral replication in Vero cells (in words) (HSV-1): no substantial reduction in viral replication
Oc1cc(O)cc(/C=C/c2cc(O)cc(O)c2)c1 [Stil-4, tetrahydroxystilbene] | >200 | 2.30 | – | – | – | – | – | – | – | –
Oc1ccc(/C=C/c2ccc(O)cc2O)cc1 [trans-2,4,4′-Trihydroxystilbene] | – | – | 90.91 | 66.46 | 93.85 | 94.40 | 87.69 | 92.46 | 81.85 | –
Oc1ccc(/C=C/c2ccccc2)c(O)c1 [trans-2,4-Dihydroxystilbene] | – | – | 30.07 | 32.27 | 42.31 | 55.19 | 39.08 | 42.58 | 43.72 | –
Oc1ccc(/C=C/c2ccccc2)cc1O [trans-3,4-Dihydroxystilbene] | – | – | – | – | – | 96.68 | 89.23 | 99.27 | 97.58 | –
Oc1cc(O)cc(/C=C/c2ccccc2)c1 [trans-3,5-Dihydroxystilbene] | – | – | −5.24 | 14.91 | −5.38 | 12.24 | 0.62 | 24.82 | 19.97 | –
Oc1ccc(/C=C/c2ccc(O)cc2)cc1 [trans-4,4′-Dihydroxystilbene] | – | – | 85.31 | 62.11 | 89.23 | 90.66 | 85.23 | 68.37 | 67.17 | –
Oc1ccc(/C=C/c2ccccc2)cc1 [trans-4-Hydroxystilbene] | – | – | 6.64 | 19.88 | −2.31 | 43.36 | 29.23 | 32.85 | -5.14 | –
